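Briefly, cells in 96-well plates were exposed to five compound concentrations for 48 h, and endpoints were estimated by linear interpolation. GI50 is the concentration that inhibits growth by half. At the TGI there is no net growth.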
Tests used:
Assay in all cases: NCI-60 cell line screen, 48 h
A549 NSCLC = system: A549 NSCLC
LOX IMVI melanoma = system: LOX IMVI melanoma
M14 melanoma = system: M14 melanoma
NCI-H23 lung = system: NCI-H23 lung
NCI-H460 lung = system: NCI-H460 lung
SF-268 CNS = system: SF-268 CNS
SK-MEL-2 melanoma = system: SK-MEL-2 melanoma
U251 CNS = system: U251 CNS
UACC-257 melanoma = system: UACC-257 melanoma
UACC-62 melanoma = system: UACC-62 melanoma

| Compound | GI50 (A549 NSCLC) | TGI (A549 NSCLC) | TGI (LOX IMVI melanoma) | TGI (M14 melanoma) | TGI (NCI-H23 lung) | TGI (NCI-H460 lung) | GI50 (SF-268 CNS) | TGI (SF-268 CNS) | TGI (SK-MEL-2 melanoma) | TGI (U251 CNS) | TGI (UACC-257 melanoma) | GI50 (UACC-62 melanoma) | TGI (UACC-62 melanoma) | GI50 (LOX IMVI melanoma) | GI50 (M14 melanoma) | GI50 (NCI-H23 lung) | GI50 (NCI-H460 lung) | GI50 (SK-MEL-2 melanoma) | GI50 (U251 CNS) | GI50 (UACC-257 melanoma) |
| --- | --- | --- | --- | --- | --- | --- | --- | --- | --- | --- | --- | --- | --- | --- | --- | --- | --- | --- | --- | --- |
| CN(C)C(=O)/N=c1\ss/c(=N\C(=S)N(C)C)n1-c1ccccc1 | 0.0483 µM | > 100 µM | > 46 µM | > 74.5 µM | > 100 µM | > 100 µM | 0.389 µM | > 100 µM | > 100 µM | > 100 µM | 28.6 µM | 1.92 µM | > 100 µM |  |  |  |  |  |  |  |
| COc1cc(/C=C2\[C@H]3c4c(c(OC)c(C)c(OC)c4OC)C[C@@H](C(=O)N2Cc2ccccc2)N3C(=O)OC(C)C)c(OC)c(C)c1OC |  | > 100 µM | > 100 µM | > 100 µM | > 100 µM | > 100 µM |  | > 100 µM | > 100 µM | > 100 µM | > 100 µM |  | > 100 µM |  |  |  |  |  |  |  |
| CCC(C)OC(=O)C1C2CCC(O2)C1C(=O)O (configuration not stated) |  | > 100 µM | > 58.3 µM | > 100 µM | > 100 µM | > 55.4 µM |  | > 80.8 µM | > 100 µM | > 67.3 µM | > 100 µM |  | > 100 µM |  |  |  |  |  |  |  |
| O=C(O)c1ccc2c(c1Nc1ccccc1)C(=O)c1ccccc1C2=O | 51.2 µM | > 100 µM | > 100 µM | > 100 µM | > 100 µM | > 100 µM | 34.6 µM | > 100 µM | > 100 µM | > 100 µM | > 100 µM | 35.6 µM | > 100 µM | 28.9 µM | 38.1 µM | 19 µM | 27.3 µM | 51.7 µM | 47 µM | 54.8 µM |
| COC(=O)C(C(=O)C(=O)Nc1ccccc1C(C)=O)c1nc2ccc(Cl)cc2[nH]c1=O (configuration not stated) |  | > 100 µM | > 100 µM | > 100 µM | > 100 µM | > 100 µM |  | > 100 µM | > 100 µM | > 100 µM | > 100 µM |  | > 100 µM |  |  |  |  |  |  |  |
| CCN(CC)CCOc1ccc(/C(=C(\C)Cc2ccc(OC)cc2)c2ccc(OC(=O)NCc3ccccc3)cc2)cc1 | 2.15 µM | 4.7 µM | 3 µM | 3.26 µM | 13.3 µM | 3.37 µM | 2.87 µM | 10.7 µM | 4.9 µM | 3.43 µM | 4.2 µM | 1.92 µM | 3.55 µM | 1.59 µM | 1.7 µM | 3.24 µM | 1.84 µM | 2.16 µM | 1.83 µM | 2.04 µM |
| CC#CS(=O)(=O)c1ccccc1 |  | 31.4 µM | 21 µM | 21.4 µM | 18.8 µM | 38 µM |  | 35.2 µM | 32.5 µM | 25.5 µM | 12.1 µM |  | 14.2 µM |  |  |  |  |  |  |  |
| Cc1c2c(nn1C(=O)c1nn(-c3ccc(Cl)cc3)cc1O)-c1ccccc1CC2 | 0.0343 µM | > 100 µM | > 100 µM | > 45.5 µM | > 100 µM | 0.0613 µM | 0.0469 µM | > 100 µM | > 100 µM | > 100 µM | 9.73 µM | 0.0507 µM |  | 0.0722 µM | 0.0842 µM | 0.0411 µM | 0.0237 µM | 55.4 µM | 0.0292 µM | 0.218 µM |
